Laboratory results as given in publication PMC9878661, “Syntheses, Structural Characterization, and Cytotoxicity Assessment of Novel Mn(II) and Zn(II) Complexes of Aroyl-Hydrazone Schiff Base Ligand” (ACS Omega, 2023).

Biological target: T1, bovine serum albumin (BSA) (Bos taurus, UniProt P02769)
T1 construct: gene ALB
Assay: UV-vis absorption titration of BSA at […] nm (double reciprocal plot)
Type: binding
Details: read-out: UV-vis absorption titration of BSA at 280 nm (double reciprocal plot) (converted)

T1 sequence (P02769 25-607): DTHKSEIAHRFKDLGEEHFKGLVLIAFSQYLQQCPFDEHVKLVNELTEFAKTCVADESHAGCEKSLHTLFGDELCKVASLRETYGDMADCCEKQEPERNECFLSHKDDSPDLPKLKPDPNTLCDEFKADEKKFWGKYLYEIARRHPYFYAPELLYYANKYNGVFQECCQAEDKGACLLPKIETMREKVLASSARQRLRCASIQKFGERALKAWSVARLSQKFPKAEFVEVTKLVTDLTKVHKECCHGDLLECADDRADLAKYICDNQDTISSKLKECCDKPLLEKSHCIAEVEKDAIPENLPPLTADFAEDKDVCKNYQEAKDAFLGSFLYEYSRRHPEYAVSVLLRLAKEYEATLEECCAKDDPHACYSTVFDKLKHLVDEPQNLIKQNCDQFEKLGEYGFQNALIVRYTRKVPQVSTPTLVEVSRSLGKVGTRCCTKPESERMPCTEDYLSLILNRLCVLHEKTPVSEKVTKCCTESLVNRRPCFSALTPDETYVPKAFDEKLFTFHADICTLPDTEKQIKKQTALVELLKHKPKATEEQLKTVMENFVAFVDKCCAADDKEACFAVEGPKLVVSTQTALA

SMILES: O=C(NN=Cc1c[nH]c2ccccc12)c1ccncc1 [L1, N′-[(E)-3-Indol-3-ylmethylene] isonicotinohydrazide]
- Kd: 261 µM
